Test results published in ChEMBL document CHEMBL1125236 (J Med Chem, 1991).
pIC50: −log10 of the molar value. Values joined by “and” are separate entries in the source; they are usually repeats but may differ in a detail not shown here. Equal entries are not always repeated.

Experiments:
L1210 [1] = assay: Antitumor activity (T/C) evaluated against L1210 leukemia from the median survival time of treated mice (T) over that of control mice (C) at a dose of 4 mg/kg; format: functional, Mus musculus
L1210 [2] = assay: Antitumor activity (T/C) evaluated against L1210 leukemia from the median survival time of treated mice (T) over that of control mice (C) at a dose of […] as experiment 1; format: functional, Mus musculus
L1210 [3] = assay: Antitumor activity (T/C) evaluated against L1210 leukemia from the median survival time of treated mice (T) over that of control mice (C) at a dose of 1 mg/kg; format: functional, Mus musculus
L1210 [4] = assay: Antitumor activity (T/C) evaluated against L1210 leukemia from the median survival time of treated mice (T) over that of control mice (C) at a dose of 0.75 mg/kg as experiment 3
[5] = Compound was evaluated for growth inhibition of WI-L2 cells.; format: functional, cell-based; conditions: Homo sapiens, WIL2
L1210 [6] = assay: In vivo activity against L1210 leukemia cells in mice at a dose of 16 mg/kg and expressed as Survival range in days; format: functional, Mus musculus
L1210 [7] = assay: In vivo activity against L1210 leukemia cells in mice at a dose of 16 mg/kg and expressed as Survival median in days; format: functional, Mus musculus
L1210 [8] = assay: In vivo activity against L1210 leukemia cells in mice at a dose of 32 mg/kg and expressed as Survival median in days; format: functional, Mus musculus
L1210 [9] = assay: Compound was evaluated for the growth inhibition of L1210 cells.; format: functional, cell-based; conditions: Mus musculus
L1210 [10] = assay: Antitumor activity (T/C) evaluated against L1210 leukemia from the median survival time of treated mice (T) over that of control mice (C) at a dose of 8 mg/kg; format: functional, Mus musculus
L1210 [11] = assay: In vivo activity against L1210 leukemia cells in mice at a dose of 8 mg/kg and expressed as Survival median in days; format: functional, Mus musculus
L1210 [12] = assay: In vivo activity against L1210 leukemia cells in mice at a dose of 32 mg/kg and expressed as Survival range in days; format: functional, Mus musculus
L1210 [13] = assay: In vivo activity against L1210 leukemia cells in mice at a dose of 8 mg/kg and expressed as Survival range in days; format: functional, Mus musculus
L1210 [14] = assay: Antitumor activity (T/C) evaluated against L1210 leukemia from the median survival time of treated mice (T) over that of control mice (C) at a dose of 16 mg/kg; format: functional, Mus musculus
L1210 [15] = assay: Antitumor activity (T/C) evaluated against L1210 leukemia from the median survival time of treated mice (T) over that of control mice (C) at a dose of 32 mg/kg; format: functional, Mus musculus
L1210 [16] = assay: In vivo activity against L1210 leukemia cells in mice at a dose of 16 mg/kg and expressed as percent weight change after 7 days; format: functional, Mus musculus
L1210 [17] = assay: In vivo activity against L1210 leukemia cells in mice at a dose of 32 mg/kg and expressed as percent weight change after 7 days; format: functional, Mus musculus
L1210 [18] = assay: In vivo activity against L1210 leukemia cells in mice at a dose of 8 mg/kg and expressed as percent weight change after 7 days; format: functional, Mus musculus
Dihydrofolate reductase = molecular target: T1, Dihydrofolate reductase (Homo sapiens, UniProt P00374)
T1 sequence (P00374 whole entry): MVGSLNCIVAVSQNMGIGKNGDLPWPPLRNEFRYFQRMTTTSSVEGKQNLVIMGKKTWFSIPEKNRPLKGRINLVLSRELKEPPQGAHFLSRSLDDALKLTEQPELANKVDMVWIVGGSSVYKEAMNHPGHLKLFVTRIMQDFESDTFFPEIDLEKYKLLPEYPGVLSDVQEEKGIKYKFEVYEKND
Description: Inhibition of dihydrofolate reductase (DHFR) from human cells (WI-L2/M4).

SMILES: CN(Cc1cnc2nc(N)nc(N)c2n1)c1ccc(C(=O)N[C@@H](CCC(=O)O)C(=O)O)cc1 [METHOTREXATE]
- T/C (L1210 [1]): 175% and 188% and 200%
- T/C (L1210 [2]): 213%
- T/C (L1210 [3]): 188%
- T/C (L1210 [4]): 175%

SMILES: Nc1nc(N)c2nc(CNc3ccc(C(=O)N[C@@H](CCC(=O)O)C(=O)O)cc3)cnc2n1 [AMINOPTERIN]
- pIC50 [5]: 8.15

SMILES: CN(Cc1cnc2nc(N)nc(N)c2n1)c1ccc(C(=O)NC(CCC(=O)Nc2cccc(B(O)O)c2)C(=O)O)cc1 (centres undefined)
- Survival range (L1210 [6]): 11 days
- Survival median (L1210 [7]): 12 days
- Survival median (L1210 [8]): 14 days
- pIC50 (L1210 [9]): 9.15
- T/C (L1210 [10]): 138%
- Survival median (L1210 [11]): 11 days
- Survival range (L1210 [12]): 12 days
- Survival range (L1210 [13]): 9 days
- T/C (L1210 [14]): 150%
- T/C (L1210 [15]): 175%
- weight change % (L1210 [16]): 4%
- weight change % (L1210 [17]): 5%
- weight change % (L1210 [18]): 8%
- pIC50 (Dihydrofolate reductase): 7.52
